Values after ≈ are worked out from the molar mass of the structure shown.
How the values were obtained:
in vitro [1] = conditions: African green monkey
Tacaribe TRVL 11573 [2] = type: cell-based
[3] = tested on: Influenza A H1N1 CA/04/2009 (Pandemic H1N1); type: cell-based
SARS-CoV Urbani [4] = type: cell-based, SARS corona virus
West Nile [5] = type: cell-based, West Nile virus
Rift Valley Fever MP-12 [6] = type: cell-based, Rift Valley fever virus
Punta Toro A2 [7] = type: cell-based, Punta Toro virus
[8] = tested on: Influenza A H1N1 CA/04/2009 (Pandemic H1N1); type: cell-based; remark: listed apart in the source
Yellow Fever 17D [9] = type: cell-based, Yellow fever virus
[10] = tested on: Measles virus (MV), strain Chicago; test: Visual CPE Assay; type: cell-based; conditions: Vero 76 cells
West Nile [11] = type: cell-based, West Nile virus; remark: listed apart in the source
Punta Toro A2 [12] = type: cell-based, Punta Toro virus; remark: listed apart in the source
[13] = tested on: Yellow fever virus (Jimenez strain); parameters: species or system Syrian golden hamsters; conditions: hamster, in vivo
Rhinovirus 2 HGP [14] = type: cell-based
Dengue 2 New Guinea C [15] = type: cell-based, Dengue virus 2
Junin Candid 1 [16] = type: cell-based, Junin virus
[17] = tested on: Influenza A H5N1 VN/1203/2004 Hybrid (on H1N1 backbone); type: cell-based
Pichinde [18] = type: cell-based
[19] = tested on: Adenovirus type 165089/Chicago; type: cell-based, Adenovirus (AV-1) type 1
in vitro [20] = conditions: human
SARS-CoV Urbani [21] = type: cell-based, SARS corona virus; remark: listed apart in the source
Rhinovirus 2 HGP [22] = type: cell-based; remark: listed apart in the source
Tacaribe TRVL 11573 [23] = type: cell-based; remark: listed apart in the source
[24] = tested on: Adenovirus type 165089/Chicago; type: cell-based, Adenovirus (AV-1) type 1; remark: listed apart in the source
[25] = tested on: Venezuelan Equine Encephalitis TC83; type: cell-based, Venezuelan equine encephalitis virus
[26] = tested on: Measles virus (MV), strain Chicago; test: Virus Yield Reduction Assay; type: cell-based; conditions: Vero-76 cells, one log 10 drop in virus produced
Respiratory Syncytial A2 [27] = type: cell-based, Respiratory syncytial virus
Influenza B Florida [28] = test: microbe, parasite or virus in culture; type: cell-based
Respiratory Syncytial A2 [29] = type: cell-based, Respiratory syncytial virus; remark: listed apart in the source
Rift Valley Fever MP-12 [30] = type: cell-based, Rift Valley fever virus; remark: listed apart in the source
[31] = tested on: Measles virus (MV), strain Chicago; test: Neutral Red Uptake Assay; type: cell-based; conditions: Vero 76 cells
Parainfluenza 3 14702 [32] = type: cell-based, Parainfluenza virus type 3
[33] = tested on: H3N2 virus (A/Victoria/3/75); parameters: species or system Balb/C mice; conditions: mouse, in vivo, po
[34] = tested on: Influenza A H3N2 Brisbane/10/2007; type: cell-based
in vitro [35] = conditions: human; remark: listed apart in the source
in vitro [36] = conditions: human; remark: listed apart in the source
[37] = tested on: Marburg, Junin Candid 1, Pichinde, Chikungunya 181/25 and Vaccinia NYCBH; test: organism not typed; type: cell-based; conditions: read-out: EC50 values, range over several viruses
Influenza B Florida [38] = type: cell-based
Yellow Fever 17D [39] = type: cell-based, Yellow fever virus; remark: listed apart in the source
in vitro [40] = conditions: African green monkey, Visual CPE Assay
in vitro [41] = conditions: human; remark: listed apart in the source
MA-104 cells [42] = conditions: African green monkey
Dengue 2 New Guinea C [43] = type: cell-based, Dengue virus 2; remark: listed apart in the source
Pichinde [44] = type: cell-based; remark: listed apart in the source
[45] = tested on: Influenza A H3N2 Brisbane/10/2007; type: cell-based; remark: listed apart in the source
Parainfluenza 3 14702 [46] = type: cell-based, Parainfluenza virus type 3; remark: listed apart in the source
MA-104 cells [47] = conditions: African green monkey; remark: listed apart in the source
Junin Candid 1 [48] = type: cell-based, Junin virus; remark: listed apart in the source
[49] = tested on: Influenza A H5N1 VN/1203/2004 Hybrid (on H1N1 backbone); type: cell-based; remark: listed apart in the source
[50] = tested on: Venezuelan Equine Encephalitis TC83; type: cell-based, Venezuelan equine encephalitis virus; remark: listed apart in the source

In the case of Nc1ncnc2c([C@@H]3N[C@H](CO)[C@@H](O)[C@H]3O)c[nH]c12 [Compound 1, (2S,3S,4R,5R)-2-(4-Amino-5H-pyrrolo[3,2-d]pyrimidin-7-yl)-5-(hydroxymethyl) pyrrolidine-3,4-diol], the CC50 (in vitro [1]) is reported as 52 µg/mL (≈ 196 µM), the “SI Neutral Red Uptake Assay” value (Tacaribe TRVL 11573 [2]) is reported as 2 and the “SI Visual CPE Assay” value [3] is reported as 120. The “SI Neutral Red Uptake Assay” value (SARS-CoV Urbani [4]) was greater than 6.3, the “SI Neutral Red Uptake Assay” value (West Nile [5]) was 2.8 and the “SI Neutral Red Uptake Assay” value (Rift Valley Fever MP-12 [6]) was 6.6. The “SI Visual CPE Assay” value (Punta Toro A2 [7]) was greater than 1.6, the “SI Neutral Red Uptake Assay” value [8] was 120 and the “SI Visual CPE Assay” value (Yellow Fever 17D [9]) was 43. The “SI Visual CPE Assay” value [10] was greater than 180, the “SI Visual CPE Assay” value (West Nile [11]) was 0 and the “SI Neutral Red Uptake Assay” value (Punta Toro A2 [12]) was 0. The weight change [13] was “weight gain over placebo and ribavirin administered pre-infection”, the “SI Neutral Red Uptake Assay” value (Rhinovirus 2 HGP [14]) was greater than 1.8 and the “SI Visual CPE Assay” value (Dengue 2 New Guinea C [15]) was 25. For the same molecule, the “SI Visual CPE Assay” value (Junin Candid 1 [16]) was greater than 17, the “SI Visual CPE Assay” value [17] was greater than 1600 and the “SI Neutral Red Uptake Assay” value (Pichinde [18]) was 6.7. For the same molecule, the “SI Neutral Red Uptake Assay” value [19] was greater than 2.3, the CC50 (in vitro [20]) was greater than 100 µg/mL and the “SI Visual CPE Assay” value (SARS-CoV Urbani [21]) was greater than 7.1. The “SI Visual CPE Assay” value (Rhinovirus 2 HGP [22]) was greater than 1.8, the “SI Visual CPE Assay” value (Tacaribe TRVL 11573 [23]) was 4.2 and the “SI Visual CPE Assay” value [24] was greater than 2.6. The “SI Neutral Red Uptake Assay” value [25] was 1.2, the “EC90 virus yield reduction” value [26] was 0.37 µg/mL (≈ 1.39 µM) and the “SI Visual CPE Assay” value (Respiratory Syncytial A2 [27]) was 0. The “SI Neutral Red Uptake Assay” value (Influenza B Florida [28]) was 38, the EC50 (Influenza B Florida [28]; Influenza B virus) was 1.8 µg/mL (≈ 6.79 µM) and the “SI Neutral Red Uptake Assay” value (Respiratory Syncytial A2 [29]) was 0. The “SI Visual CPE Assay” value (Rift Valley Fever MP-12 [30]) was 9.1, the “SI Neutral Red Uptake Assay” value [31] was greater than 71 and the “SI Visual CPE Assay” value (Parainfluenza 3 14702 [32]) was 7.1. For the same molecule, the “Mean weight change (grams ± SEM) Day 9” value [33] was 0.01 ± 0.27 grams, the “SI Neutral Red Uptake Assay” value [34] was 79 and the CC50 (in vitro [35]) was greater than 100 µg/mL. The CC50 (in vitro [36]) was greater than 100 µg/mL, the EC50 [37] was no less than 10 µg/mL and the “SI Visual CPE Assay” value (Influenza B Florida [38]) was 290. The “SI Neutral Red Uptake Assay” value (Yellow Fever 17D [39]) was 38, the CC50 (in vitro [40]) was 100 µg/mL (≈ 377 µM) and the CC50 (in vitro [41]) was greater than 100 µg/mL. For the same molecule, the “IC50 Visual CPE Assay” value (MA-104 cells [42]) was greater than 100 µg/mL, the “SI Neutral Red Uptake Assay” value (Dengue 2 New Guinea C [43]) was 26 and the “SI Visual CPE Assay” value (Pichinde [44]) was greater than 8.2. For the same molecule, the “SI Visual CPE Assay” value [45] was 140, the “SI Neutral Red Uptake Assay” value (Parainfluenza 3 14702 [46]) was 52 and the “IC50 Neutral Red Uptake Assay” value (MA-104 cells [47]) was greater than 100 µg/mL. The “SI Neutral Red Uptake Assay” value (Junin Candid 1 [48]) was 14, the “SI Neutral Red Uptake Assay” value [49] was 130 and the “SI Visual CPE Assay” value [50] was 2.2.

— patent US12508266B2 (priority 2010, dated 2025)
